Tests used:
Histamine H3 receptor [1] = target: Histamine H3 receptor (Homo sapiens, UniProt Q9Y5N1); experiment: Displacement of [125I]-iodoproxyfan from human recombinant histamine H3 receptor expressed in HEK293 cells after 1 hr by gamma counting analysis; assay type: cell-based
[2] = Half life of the compound; assay type: physicochemical
Histamine H3 receptor [3] = target: Histamine H3 receptor (Mus musculus, UniProt P58406); experiment: Displacement of [125I]-iodoproxyfan from histamine H3 receptor in mouse brain cortex after 1 hr by gamma counting analysis; assay type: tissue-based
Mus musculus [4] = experiment: Inverse agonist activity at histamine H3 receptor in po dosed Swiss mouse assessed as release of N-tele-methylhistamine in brain after 90 mins by enzyme-immunoassay; assay type: functional; settings: 1.5 h
[5] = AUC in Swiss mouse plasma; assay type: ADME
[6] = Cmax in Swiss mouse plasma; assay type: ADME
[7] = Tmax in Swiss mouse brain; assay type: ADME, tissue-based
[8] = Tmax in Swiss mouse plasma; assay type: ADME
[9] = AUC in Swiss mouse brain; assay type: ADME, organism-based
[10] = Half life in Swiss mouse brain; assay type: ADME, tissue-based
[11] = Half life in Swiss mouse plasma; assay type: ADME
[12] = Cmax in Swiss mouse brain; assay type: ADME, tissue-based
[13] = AUC (0 to 8 hrs) in Swiss mouse brain at 10 mg/kg, po by […] analysis; assay type: ADME, organism-based; design: time < 8 hr, dose 10 mg/kg, route oral
Cytochrome P450 2D6 = Cytochrome P450 2D6 (Homo sapiens, UniProt P10635); experiment: Inhibition of human recombinant CYP2D6; assay type: ADME
Cytochrome P450 3A4 = Cytochrome P450 3A4 (Homo sapiens, UniProt P08684); experiment: Inhibition of human recombinant CYP3A4; assay type: ADME
Mus musculus [14] = experiment: Inverse agonist activity at histamine H3 receptor in po dosed Swiss mouse assessed as release of N-tele-methylhistamine in brain after 90 mins by enzyme-immunoassay relative to ciproxifan; assay type: functional
Cytochrome P450 2C9 = Cytochrome P450 2C9 (Homo sapiens, UniProt P11712); experiment: Inhibition of human recombinant CYP2C9; assay type: ADME
[15] = AUC (0 to 8 hrs) in Swiss mouse plasma at 10 mg/kg, po by […] analysis; assay type: ADME, organism-based; design: time < 8 hr, dose 10 mg/kg, route oral
[16] = target: Voltage-gated inwardly rectifying potassium channel KCNH2 (Homo sapiens, UniProt Q12809); experiment: Binding affinity to human ERG
Chain of Voltage-gated inwardly rectifying potassium channel KCNH2 (Q12809 whole entry): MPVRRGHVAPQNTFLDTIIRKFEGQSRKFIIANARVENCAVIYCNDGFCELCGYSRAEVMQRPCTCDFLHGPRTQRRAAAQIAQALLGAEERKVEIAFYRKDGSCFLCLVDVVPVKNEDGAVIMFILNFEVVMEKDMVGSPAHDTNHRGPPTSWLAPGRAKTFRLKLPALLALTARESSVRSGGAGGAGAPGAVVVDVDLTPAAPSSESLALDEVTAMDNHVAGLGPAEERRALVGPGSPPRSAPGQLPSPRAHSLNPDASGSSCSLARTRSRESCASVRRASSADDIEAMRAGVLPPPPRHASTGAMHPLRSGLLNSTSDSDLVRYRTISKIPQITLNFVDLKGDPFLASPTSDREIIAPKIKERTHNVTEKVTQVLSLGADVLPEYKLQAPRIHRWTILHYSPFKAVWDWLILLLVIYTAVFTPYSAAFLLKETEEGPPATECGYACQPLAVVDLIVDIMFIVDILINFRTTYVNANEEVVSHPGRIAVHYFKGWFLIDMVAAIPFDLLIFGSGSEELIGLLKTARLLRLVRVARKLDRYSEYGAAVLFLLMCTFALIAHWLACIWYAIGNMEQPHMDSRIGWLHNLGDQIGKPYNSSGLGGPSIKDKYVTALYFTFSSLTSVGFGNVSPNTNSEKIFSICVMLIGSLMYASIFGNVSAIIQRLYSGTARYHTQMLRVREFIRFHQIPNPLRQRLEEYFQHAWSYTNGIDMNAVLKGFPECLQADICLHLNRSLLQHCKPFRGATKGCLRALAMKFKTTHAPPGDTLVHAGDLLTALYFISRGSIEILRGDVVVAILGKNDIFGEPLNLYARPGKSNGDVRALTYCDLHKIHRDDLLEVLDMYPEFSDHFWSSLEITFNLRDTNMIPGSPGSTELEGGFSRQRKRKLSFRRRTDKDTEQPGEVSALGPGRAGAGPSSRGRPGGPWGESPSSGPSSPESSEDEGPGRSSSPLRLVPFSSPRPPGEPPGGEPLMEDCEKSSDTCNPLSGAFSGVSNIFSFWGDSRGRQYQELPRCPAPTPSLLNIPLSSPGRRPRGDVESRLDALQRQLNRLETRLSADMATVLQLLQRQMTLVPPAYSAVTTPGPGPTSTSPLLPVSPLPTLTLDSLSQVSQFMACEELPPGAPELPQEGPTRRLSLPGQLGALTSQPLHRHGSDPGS

Chain of Histamine H3 receptor (Homo sapiens, UniProt Q9Y5N1) (Q9Y5N1 whole entry): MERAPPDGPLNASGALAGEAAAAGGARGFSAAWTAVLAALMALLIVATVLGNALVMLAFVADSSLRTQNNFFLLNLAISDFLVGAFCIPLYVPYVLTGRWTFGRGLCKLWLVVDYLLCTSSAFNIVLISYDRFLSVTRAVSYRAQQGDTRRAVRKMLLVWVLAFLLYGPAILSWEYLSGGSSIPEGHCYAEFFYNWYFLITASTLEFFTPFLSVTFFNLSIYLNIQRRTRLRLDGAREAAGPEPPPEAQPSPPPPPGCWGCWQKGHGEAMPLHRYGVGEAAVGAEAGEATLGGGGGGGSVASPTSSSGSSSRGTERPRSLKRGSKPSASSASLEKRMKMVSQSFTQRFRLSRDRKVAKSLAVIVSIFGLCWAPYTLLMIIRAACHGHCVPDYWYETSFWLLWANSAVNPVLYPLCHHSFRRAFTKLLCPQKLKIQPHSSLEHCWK
Chain of Histamine H3 receptor (Mus musculus, UniProt P58406) (P58406 whole entry): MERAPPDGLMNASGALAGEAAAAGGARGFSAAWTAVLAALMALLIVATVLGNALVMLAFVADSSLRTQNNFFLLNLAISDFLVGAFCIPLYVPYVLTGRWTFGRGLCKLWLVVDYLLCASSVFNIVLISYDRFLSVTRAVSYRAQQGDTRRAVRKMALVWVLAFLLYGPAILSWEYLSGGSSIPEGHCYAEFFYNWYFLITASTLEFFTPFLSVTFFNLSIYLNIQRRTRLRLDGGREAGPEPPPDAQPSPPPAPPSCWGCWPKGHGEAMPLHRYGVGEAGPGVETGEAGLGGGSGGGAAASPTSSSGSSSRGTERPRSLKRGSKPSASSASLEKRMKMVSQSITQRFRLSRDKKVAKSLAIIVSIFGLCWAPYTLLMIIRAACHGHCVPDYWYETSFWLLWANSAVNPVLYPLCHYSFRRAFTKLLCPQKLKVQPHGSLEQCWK
Chain of Cytochrome P450 2C9 (P11712 whole entry): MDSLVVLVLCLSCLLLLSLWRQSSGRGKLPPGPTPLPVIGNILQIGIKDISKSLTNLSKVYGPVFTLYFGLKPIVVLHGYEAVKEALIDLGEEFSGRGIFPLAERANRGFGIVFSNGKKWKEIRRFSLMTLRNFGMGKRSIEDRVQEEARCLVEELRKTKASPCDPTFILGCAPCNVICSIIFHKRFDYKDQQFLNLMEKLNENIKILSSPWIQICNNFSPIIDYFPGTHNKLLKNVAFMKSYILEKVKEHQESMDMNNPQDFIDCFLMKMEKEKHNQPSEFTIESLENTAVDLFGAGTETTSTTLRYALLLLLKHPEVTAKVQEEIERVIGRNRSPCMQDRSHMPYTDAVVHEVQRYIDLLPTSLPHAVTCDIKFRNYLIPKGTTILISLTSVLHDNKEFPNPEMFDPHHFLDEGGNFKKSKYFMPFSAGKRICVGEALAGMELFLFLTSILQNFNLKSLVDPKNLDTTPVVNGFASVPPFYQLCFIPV
Chain of Cytochrome P450 3A4 (P08684 whole entry): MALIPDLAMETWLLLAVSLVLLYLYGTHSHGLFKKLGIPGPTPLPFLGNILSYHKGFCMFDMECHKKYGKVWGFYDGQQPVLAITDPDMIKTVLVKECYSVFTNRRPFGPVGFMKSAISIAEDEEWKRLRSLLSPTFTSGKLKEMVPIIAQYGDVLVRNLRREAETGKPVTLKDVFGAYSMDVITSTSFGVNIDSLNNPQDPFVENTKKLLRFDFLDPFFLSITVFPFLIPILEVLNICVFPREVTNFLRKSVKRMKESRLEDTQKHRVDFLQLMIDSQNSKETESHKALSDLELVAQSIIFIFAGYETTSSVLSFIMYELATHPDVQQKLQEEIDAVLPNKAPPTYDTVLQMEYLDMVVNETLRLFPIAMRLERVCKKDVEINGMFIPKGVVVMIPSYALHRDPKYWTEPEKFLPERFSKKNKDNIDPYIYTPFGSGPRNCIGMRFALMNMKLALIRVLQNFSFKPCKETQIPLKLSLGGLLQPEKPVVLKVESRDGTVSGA
Chain of Cytochrome P450 2D6 (P10635 whole entry): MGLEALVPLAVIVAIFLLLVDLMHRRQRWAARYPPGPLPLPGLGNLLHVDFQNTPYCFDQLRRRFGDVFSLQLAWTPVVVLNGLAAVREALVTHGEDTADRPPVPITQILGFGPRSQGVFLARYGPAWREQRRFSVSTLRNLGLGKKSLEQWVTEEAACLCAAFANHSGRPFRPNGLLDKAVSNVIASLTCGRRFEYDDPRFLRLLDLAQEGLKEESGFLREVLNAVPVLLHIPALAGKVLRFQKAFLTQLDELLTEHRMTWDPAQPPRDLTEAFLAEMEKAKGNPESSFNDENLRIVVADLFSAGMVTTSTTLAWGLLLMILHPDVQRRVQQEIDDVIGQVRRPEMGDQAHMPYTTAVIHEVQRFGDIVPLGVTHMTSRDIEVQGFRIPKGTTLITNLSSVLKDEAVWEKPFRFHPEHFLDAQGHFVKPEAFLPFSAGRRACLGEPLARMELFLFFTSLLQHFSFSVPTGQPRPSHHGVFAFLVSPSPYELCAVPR

For `OC1(c2ccc(OCCCN3CCCCC3)cc2)CCOCC1`, the Ki (Histamine H3 receptor [1]) was 4.1 nM.

With `COCCCS(=O)(=O)c1ccc(-c2ccc(CCN3CCC[C@H]3C)cc2)cc1` the half-life [2] was 50 h.

Compound `OC(c1ccc(OCCCN2CCCCC2)cc1)C1CCOCC1` (stereo unspecified) has a Ki (Histamine H3 receptor [1]) of 13 nM.

`OC1(c2ccc(OCCCN3CCCCC3)cc2)CCCCC1` gave a Ki (Histamine H3 receptor [1]) of 3.9 nM.

With `C=CCC(O)(CC=C)c1ccc(OCCCN2CCCCC2)cc1` the Ki (Histamine H3 receptor [3]) was 4.3 nM and the Ki (Histamine H3 receptor [1]) was 0.54 nM.

With `c1cc([C@H]2CC[C@H](N3CCOCC3)CC2)ccc1OCCCN1CCCCC1` the ED50 (Mus musculus [4]) was 1.3 mg/kg, the AUC [5] was 2110 ng·h/mL and the Cmax [6] was 357 ng/mL. For the same compound, the Tmax [7] was 1.5 h, the Tmax [8] was 1.5 h and the AUC [9] was 15600 ng·h/mL. The half-life [10] was > 10 h, the half-life [11] was 5 h and the Cmax [12] was 2380 ng/mL.

Compound `OC1CCN([C@H]2CC[C@H](c3ccc(OCCCN4CCCCC4)cc3)CC2)CC1` (mixture of isomers) has an AUC [5] of 1520 ng·h/mL, a Cmax [6] of 399 ng/mL and a Tmax [7] of 3 h. The Tmax [8] was 1.5 h, the AUC [9] was 1520 ng·h/mL and the half-life [10] was > 10 h. For the same compound, the half-life [11] was 6 h and the Cmax [12] was 215 ng/mL.

In the case of `CC(C)(O)c1ccc(OCCCN2CCCCC2)cc1`, the Ki (Histamine H3 receptor [1]) is reported as 6.8 nM.

With `CCC(O)(CC)c1ccc(OCCCN2CCCCC2)cc1` the Ki (Histamine H3 receptor [3]) was 14 nM and the Ki (Histamine H3 receptor [1]) was 1.4 nM.

With `OC1(c2ccc(OCCCN3CCCCC3)cc2)CCC1` the Ki (Histamine H3 receptor [1]) was 18 nM.

`CC(C)(O)CCc1ccc(OCCCN2CCCCC2)cc1` showed a Ki (Histamine H3 receptor [1]) of 4 nM.

For `O[C@H]1CC[C@H](c2ccc(OCCCN3CCCCC3)cc2)CC1`, the AUC(0-t) at 8 h [13] was 18000 ng·h/mL, the IC50 (Cytochrome P450 2D6) was > 100000 nM and the ED50 (Mus musculus [4]) was 0.3 mg/kg. It also gave an IC50 (Cytochrome P450 3A4) of 30300 nM, a Ratio (Mus musculus [14]) of 1 and an IC50 (Cytochrome P450 2C9) of 40300 nM. The AUC(0-t) at 8 h [15] was 4980 ng·h/mL, the Ki (Histamine H3 receptor [3]) was 6.9 nM and the Ki (Histamine H3 receptor [1]) was 2.6 nM. It also gave a Ki [16] of 5800 nM.

`OCC#Cc1ccc(OCCCN2CCCCC2)cc1` showed a Ki (Histamine H3 receptor [1]) of 15 nM.

`OC1(c2ccc(OCCCN3CCCCC3)cc2)CCCC1` showed a Ki (Histamine H3 receptor [3]) of 7.6 nM.

`OCCC#Cc1ccc(OCCCN2CCCCC2)cc1` gave a Ki (Histamine H3 receptor [1]) of 19 nM.

Work on `CCCC(O)(CCC)c1ccc(OCCCN2CCCCC2)cc1` yielded a Ki (Histamine H3 receptor [3]) of 2.5 nM.

Compound `CC(O)CCc1ccc(OCCCN2CCCCC2)cc1` (stereo unspecified) has a Ki (Histamine H3 receptor [1]) of 3.3 nM.

For `C=CCC(O)c1ccc(OCCCN2CCCCC2)cc1` (stereo unspecified), the Ki (Histamine H3 receptor [1]) was 6.9 nM.

In the case of `OCc1ccc(OCCCN2CCCCC2)cc1`, the Ki (Histamine H3 receptor [1]) is reported as 22.7 nM.

With `OC(c1ccc(OCCCN2CCCCC2)cc1)C1CCCCC1` (stereo unspecified) the Ki (Histamine H3 receptor [1]) was 2.9 nM.

Compound `OCCc1ccc(OCCCN2CCCCC2)cc1` has a Ki (Histamine H3 receptor [1]) of 32 nM.

For `OC1CCC(Cc2ccc(OCCCN3CCCCC3)cc2)CC1` (stereo unspecified), the Ki (Histamine H3 receptor [3]) was 6.3 nM and the Ki (Histamine H3 receptor [1]) was 1.9 nM.

Work on `C=CC(O)c1ccc(OCCCN2CCCCC2)cc1` (stereo unspecified) yielded a Ki (Histamine H3 receptor [3]) of 18 nM and a Ki (Histamine H3 receptor [1]) of 8.6 nM.

From ChEMBL document CHEMBL2375312, “Novel and highly potent histamine H3 receptor ligands. Part 3: an alcohol function to improve the pharmacokinetic profile” (Bioorg Med Chem Lett, 2013)
